From patent publication US20140303092A1 (CHIMERIX, INC., priority 2011, published 2014)
Values joined by “and” are separate entries in the source; they are usually repeats but may differ in a detail not shown here. Equal values may be shown once.

Tested on: CMV
Test: Study HDP-CDV-201: prevention or control of CMV infection in R+ HSCT recipients (efficacy)
Assay type: in vivo, human (adult allogeneic HSCT recipients)
Conditions: for Time to CMV DNAemia (≧100 copies/mL), Mean / Number of Subjects who had CMV DNAemia (≧100 copies/mL) by the end of study / Time to CMV DNAemia (≧100 copies/mL), Median: CMV DNA negative at baseline; for Difference (HDP-CDV minus placebo) in rate of CMV DNAemia ≧1,000 copies/mL / Rate of CMV DNAemia ≧1,000 copies/mL during the treatment period: CMV modified strata: positive; for Discontinuation: Emergence of CMV disease / Discontinuation: Initiation of alternate CMV therapy: active treatment period
Experimental: The clinical study of the current invention (HDP-CDV-201) was a 9-11 week randomized, placebo-controlled, double-blind, dose-escalation study (40 mg weekly [QW], 100 mg QW, 200 mg QW, 200 mg twice-weekly [BIW], and 100 mg BIW) of HDP-CDV for the prevention of CMV infection post-HCT. Treatment was initiated at the time of engraftment and continued until Week 13 post-HCT. HDP-CDV, at various doses, was active and well tolerated in the prevention CMV infection or disease.
Clinical Studies of HDP-CDV were performed and described in detail in the following Examples. For example, HDP-CDV-201 is a placebo-controlled, dose-escalating trial in HSCT CMV (R+) recipients, evaluating the ability of HDP-CDV to prevent or control CMV infection was carried out. Five cohorts were established in which participants or subjects received either placebo or the HDP-CDV orally, in doses ranging from 40 mg weekly (QW) to 200 mg twice weekly (BIW). Subjects who were post-HSCT were enrolled at the time of engraftment and randomized to HDP-CDV or placebo (3 to 1 ratio) and received blinded therapy until approximately 100 day post-transplantation. HDP-CDV doses were 40 mg QW, 100 mg QW, 200 mg QW, 200 mg BIW and 100 mg BIW. Escalation to the next dose was decided by the data monitoring committee after review of the safety data from the previous Cohort. Subjects who developed CMV disease or CMV infection requiring pre-emptive therapy with local standard of care were discontinued from blinded therapy and followed for 4 weeks. Subjects who completed treatment with blinded therapy were followed for 8 weeks post-therapy.
The primary endpoint was defined as the incidence of CMV disease at any time during treatment or CMV DNAemia≧200 copies/mL at the end of treatment. All subjects who received at least one dose of drug/placebo and had at least one efficacy evaluation post baseline were included in the primary analysis, regardless of their CMV DNAemia status (negative or positive) at baseline (mITT population). Results for the pooled HDP-CDV Cohorts and for each Cohort separately were analyzed versus that for pooled placebo.
The primary efficacy measure for this study was treatment failure, defined as the occurrence of CMV infection, defined as CMV DNAemia>200 copies/mL at the End of Treatment or diagnosis of CMV disease at any time during the treatment period. For the analysis, the following definitions apply:
For subjects who completed the treatment phase of the study, the End of Treatment was defined as the latest assessment from date of the last dose of study drug and up to 7 days for QW dosing, or the date of the last dose of study drug and up to 4 days for BIW dosing. For subjects who discontinued during the treatment phase of the study, the End of Treatment was defined as the date of the last dose of study drug.
The time to event was defined as the period between FDD and date of first occurrence of the event of interest (inclusive). The events included onset of CMV DNAemia, onset of CMV disease, and discontinuation because of excluded anti-CMV medications. Time to event/onset was derived as (the event/onset date—FDD)+1.
As detailed in the Statistical Analysis Plan, a modified CMV stratum was defined prior to conducting the statistical analysis based upon polymerase chain reaction (PCR) results from the central laboratory. If any positive CMV DNA value in plasma was collected before the first dose of study drug (including Screening, Pre-dose, (combined Screening/Pre-dose), CMV for stratification, and FDD), then the subject was placed into the modified CMV positive (≧100 copies/mL) stratum, otherwise the subject was in the modified CMV negative stratum. […]

[1] = 200 mg BIW/QW, modified CMV negative stratum
[2] = 200 mg BIW, CMV modified strata: negative
[3] = 200 mg BIW, modified CMV negative stratum
[4] = 200 mg QW, CMV modified strata: negative

## CCCCCCCCCCCCCCCCOCCCOP(=O)(O)COC(CO)Cn1ccc(N)nc1=O (stereo not drawn) [HDP-CDV]
100 mg QW, treatment period, censored values not included
  Time to CMV DNAemia (≧100 copies/mL), Mean: 38.8 days
100 mg QW, whole study period
  Number of Subjects who had CMV DNAemia (≧100 copies/mL) by the end of study: 8
  Time to CMV DNAemia (≧100 copies/mL), Mean: 53.4 days
  Time to CMV DNAemia (≧100 copies/mL), Median: 38.5 days
[1]
  % CMV Event Rate: Incidence of CMV DNAemia >100 copies/mL During Treatment (Fisher analysis, ref 14.3.3.2.1): 4 (18.2%) subjects (%)
  % CMV Event Rate: Incidence of CMV DNAemia ≧1,000 copies/mL at any time during treatment: 0 subjects (%)
[2]
  Difference (HDP-CDV minus placebo) in infection rate: −16.2%
  Difference (HDP-CDV minus placebo) in rate of CMV DNAemia ≧1,000 copies/ml: −31.9%
  Rate of CMV DNAemia ≧1,000 copies/ml during the treatment period: 0%
  Rate of CMV Disease or End of Treatment CMV Infection: 13.6%
200 mg BIW
  Difference (HDP-CDV minus placebo) in rate of CMV DNAemia ≧1,000 copies/mL: −58.3%
  Rate of CMV DNAemia ≧1,000 copies/mL during the treatment period: 25%
  Discontinuation: Emergence of CMV disease: 0 Subject n (%)
  Discontinuation: Initiation of alternate CMV therapy: 5 (16.7%) Subject n (%)
200 mg BIW, aGVHD randomization strata: negative
  Rate of CMV Disease or End of Treatment CMV Infection: 24.1%
200 mg BIW, aGVHD strata: negative
  Difference (HDP-CDV minus placebo) in infection rate: −7.9%
200 mg BIW, mITT
  Difference (HDP-CDV minus placebo) in rate of CMV DNAemia ≧1000 copies/mL: −35.7%
  Difference (HDP-CDV minus placebo) in rate of CMV disease or end of treatment CMV infection: −14.0%
  Subjects Receiving Antiviral Therapy and/or had CMV disease: 5 (16.7%) subjects (%)
  Subjects without a CMV event: 25 (83.3%) subjects (%)
  Time to Antiviral Therapy, Median: 15.0 days
200 mg BIW, mITT, missing=infection
  Rate of CMV Disease or End of Treatment CMV Infection (≧200 copies/ml): 23% and 23.3%
200 mg BIW, mITT, post hoc
  Rate of CMV DNAemia ≧1000 copies/mL during the treatment period: 7% and 6.7%
200 mg BIW, mITT, censored values not included
  Time to Antiviral Therapy, Mean: 21.6 days
[3]
  Subjects Who Had CMV-related Event (CMV disease, CMV DNAemia ≧1,000 c/mL or initiation of anti-CMV treatment): 3 (13.6%) subjects (%)
  Subjects without a CMV-related event: 20 (86.4%) subjects (%)
200 mg BIW, plasma CMV DNA negative at baseline, mITT
  Developed CMV DNAemia (≧100 copies/mL) during the treatment period: 4 (17.4%) N(%)
200 mg BIW, treatment period
  Time to CMV DNAemia (≧100 copies/mL), Median: 25.5 days
200 mg BIW, treatment period, censored values not included
  Time to CMV DNAemia (≧100 copies/mL), Mean: 24.8 days
200 mg BIW, whole study period
  Median Survival Time to CMV DNAemia (Kaplan-Meier): 130 days
  Number of Subjects who had CMV DNAemia (≧100 copies/mL) by the end of study: 9
  Time to CMV DNAemia (≧100 copies/mL), Mean: 49.0 days
  Time to CMV DNAemia (≧100 copies/mL), Median: 42.0 days
[4]
  Difference (HDP-CDV minus placebo) in infection rate: −9.1%
  Difference (HDP-CDV minus placebo) in rate of CMV DNAemia ≧1,000 copies/ml: −25.0%
  Rate of CMV DNAemia ≧1,000 copies/ml during the treatment period: 6.9%
  Rate of CMV Disease or End of Treatment CMV Infection: 20.7%
200 mg QW
  Difference (HDP-CDV minus placebo) in rate of CMV DNAemia ≧1,000 copies/mL: −33.3%
  Rate of CMV DNAemia ≧1,000 copies/mL during the treatment period: 50.0%
  Discontinuation: Emergence of CMV disease: 0 Subject n (%)
  Discontinuation: Initiation of alternate CMV therapy: 7 (17.9%) Subject n (%)
200 mg QW, aGVHD randomization strata: negative
  Rate of CMV Disease or End of Treatment CMV Infection: 30.8%
200 mg QW, aGVHD strata: negative
  Difference (HDP-CDV minus placebo) in infection rate: −1.3%
200 mg QW, mITT
  Difference (HDP-CDV minus placebo) in rate of CMV DNAemia ≧1000 copies/mL: −24.4%
  Difference (HDP-CDV minus placebo) in rate of CMV disease or end of treatment CMV infection: −6.5%
